Laboratory results from patent publication US20230148152A1, “METHOD OF SYNTHESIZING SINGLE-STRANDED NUCLEOTIDE SEQUENCE, BLOCKED NUCLEOSIDE TRIPHOSPHATES AND RELATED METHODS” (Agency for Science, Technology and Research, priority 2019, published 2023).

Assays:
Type in all cases: biochemical
[1] = system: engineered terminal deoxynucleotidyl transferase (TdT); assay: Tailing experiment design, screening of RT-dTTPs with eTdT as enzyme; conditions: for incorporation yield, eTdT compared with rTdT: catalytic activity of rTdT compared with eTdT, FIG. 10; for incorporation into the original FAM-20-mer (21-mer product): eTdT as enzyme, PAGE, FIG. 8A and FIG. 8B
From the text: (§1) In this experimental design (FIG. 5), single-stranded deoxyoligonucleotides (20 nt) 102 with FAM tagged on 5′ end reacts with RT-dNTP 104 using TdT as the catalyst, and produce 21-mer (102a and 102b).
(§2) As the incorporation is not 100%, the unreacted FAM tagged oligo will further react with natural deoxynucleotidyl triphosphates (dATP) 106, and produces tailing products 102c. The 21-mer (102a and 102b) and tailing products (102c) can be separated by polyacrylamide gel electrophoresis.
(§3) 1. Set up the following reactions
(§4) 2. Incubate the solution at 37° C. for 60 min
(§5) 3. Purification • Desalt with Zymo column Oligo Clean & Concentrator D4061 (following manufacturer's protocol) to obtain 15 μL aqueous solution and concentrate on speedvac to dry
(§6) 4. Set up the following reactions
(§7) 5. Incubate at 37° C. for 60 min
(§8) 6. Stop the reaction by heating at 70° C. for 10 min
(§9) 7. Purification • Desalt with Zymo column Oligo Clean & Concentrator D4061 (following manufacturer's protocol) to obtain 15 μL aqueous solution and concentrate on speedvac to dry
(§10) 8. Denaturing PAGE (20% urea PAGE, 200V for 90 min) • Preheat 1×TBE buffer at 65° C. • Set up gel in gel tank, flush wells, pre-run 20% urea polyacrylamide gel at 200V for 30 min • Prepare loading sample (dry sample+2.5 μL 1×TBE, 0.5 μL loading buffer), preheat sample at 95° C. for 10 min • Flush each well 3 times to remove urea in wells, load sample, and run for 90 min • Image under UV light without post staining. If post staining is needed, SYBR Gold is used.
(§11) In evaluating the RT-dTTP(s)'s incorporation and termination activities using tailing experiment design, two types of TdTs are used for the evaluation studies: recombinant TdT (rTdT) purchased from Promega and engineered TdT (eTdT).

[2] = system: terminal deoxynucleotidyl transferase (TdT); assay: Evaluation of reversibility of reversible terminators (incorporation, capping, deprotection, elongation); conditions: elongation by TdT after deprotection of CE or DT
From the text: Once RT-dTTP is incorporated to the single-stranded oligonucleotide, the reversible terminator needs to be removed to enable the next base incorporation. […] The reaction will produce a mixture of products which includes the reversibly terminated 21-mer (202a and 202b) and unreacted original 20-mer 202. Then azido-ddGTP 206 will be added to 3′-termini of the unreacted 20-mer 202. As 3′ termini become a dideoxynucleotide 202c, the azido oligonucleotide will not be able to further react with any dTTP via TdT. Then reversibly terminator will be removed in certain conditions, and further incorporated with natural dTTP 208 via TdT.
1. Set Up the Following Reactions
as §4
3. Purification • Desalt with Zymo column Oligo Clean & Concentrator D4061 (following protocol) to obtain 15 μL aqueous solution and concentrate on speedvac to dry
4. Add 85 μL of 30% NH4OH and heat at 80° C. for 1 h
5. Purification • Desalt with Zymo column Oligo Clean & Concentrator D4061 (following protocol) to obtain 15 μL aqueous solution and concentrate on speedvac to dry Elongation of Nucleotide with Natural dATP:
6. Set up the following reactions
7. Incubate at 37° C. for 60 min
8. Stop the reaction by heating at 70° C. for 10 min
9. Purification • Desalt with Zymo column Oligo Clean & Concentrator D4061 (following protocol) to obtain 15 μL aqueous solution and concentrate on speedvac to dry […]

rTdT = biological target: T1, rTdT (Bos taurus, UniProt P06526); assay: Laddering experiment design (dATP / RT-dTTP ratios); conditions: laddering experiments, FIG. 11; compared with Az-dTTP
T1 construct: purchased Promega
Procedure: The laddering experiment design is to differentiate the ratio between natural dNTP and RT-dNTP.
as §3
2. Incubate at 37° C. for 60 min
3. Stop the reaction by heating at 70° C. for 10 min
4. Purification • Desalt with Zymo column Oligo Clean & Concentrator D4061 (following manufacturer's protocol) to obtain 15 μL aqueous solution and concentrate on speedvac to dry
as §10, with “5.” for “8.”

[3] = system: template-independent terminal deoxynucleotidyl transferase (TdT) enzyme; assay: Single base addition to single-stranded nucleotide sequence catalysed by TdT (overall conclusion); conditions: for termination of further base incorporation: summary of tailing experiments; for incorporation in single stranded oligonucleotide via the catalysis of TdT: summary, recombinant or engineered TdT
From the text: A series of screening experiments were designed and conducted to test the recognition of the reversible terminators nucleoside triphosphate reversible terminators designed in accordance with various embodiments disclosed herein by template-independent polymerase and the efficiency of the incorporation of such reversible terminators into the nucleic acid chain. In these experiments, the template-independent polymerase used is recombinant or engineered template-independent terminal deoxynucleotidyl transferase (TdT) enzyme and the initiator used is a single-stranded oligonucleotide sequence.

[4] = biological target: T2, recombinant terminal deoxynucleotidyl transferase (TdT) (Bos taurus, UniProt P06526); assay: Tailing experiment design, screening of RT-dTTPs with rTdT as enzyme; conditions: 37° C. for 60 min, PAGE, FIG. 6A, FIG. 7
T2 construct: purchased Promega
From the text: as §1, §2, §3, §4, §5, §6, §7, §8, §9, §10, §11

T2 sequence (P06526 whole entry): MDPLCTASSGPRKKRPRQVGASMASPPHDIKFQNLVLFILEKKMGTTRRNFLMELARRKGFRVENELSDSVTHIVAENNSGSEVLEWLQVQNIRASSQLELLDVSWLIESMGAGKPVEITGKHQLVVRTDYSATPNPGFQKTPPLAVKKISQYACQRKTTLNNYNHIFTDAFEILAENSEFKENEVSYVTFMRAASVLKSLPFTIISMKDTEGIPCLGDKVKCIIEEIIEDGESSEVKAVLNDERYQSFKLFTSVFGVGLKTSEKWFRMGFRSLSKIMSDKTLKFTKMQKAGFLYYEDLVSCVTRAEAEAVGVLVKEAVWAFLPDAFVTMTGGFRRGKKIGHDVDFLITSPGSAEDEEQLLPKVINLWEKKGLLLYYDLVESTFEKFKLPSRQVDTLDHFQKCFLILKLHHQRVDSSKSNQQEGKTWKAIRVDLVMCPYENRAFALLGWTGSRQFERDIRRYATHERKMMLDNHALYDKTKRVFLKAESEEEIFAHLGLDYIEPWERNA
T1 sequence (P06526 whole entry): as above

Molecule | incorporation yield, eTdT compared with rTdT [1] | further incorporation of natural nucleotide after deprotection [2] | termination of the reaction (rTdT) | incorporation into the original FAM-20-mer (21-mer product) [1] | termination of further base incorporation [3] | incorporation in single stranded oligonucleotide via the catalysis of TdT [3] | incorporation into the original FAM-20-mer (21-mer product) [4]
Cc1cn([C@H]2C[C@H](OCCC#N)[C@@H](COP(=O)(O)OP(=O)(O)OP(=O)(O)O)O2)c(=O)[nH]c1=O [CE-dTTP, 2-cyanoethyl ether (CE)-dTTP] | much high incorporation yield than rTdT | able to incorporate with natural dTTP | can terminate the reaction as well as Az-dTTP | – | – | – | –
dithianemethyl acetal (DMA)-dTTP [DMA-dTTP] | – | – | – | gave 21-mer products | terminate further base incorporation | successfully incorporated | gave 21-mer products
Cc1cn(C2CC(OCN=[N+]=[N-])C(COP(=O)(O)OP(=O)(O)OP(=O)(O)O)O2)c(=O)[nH]c1=O (stereo not shown) [Az-dTTP, reference compound] | much high incorporation yield than rTdT | – | – | – | – | – | –
Cc1cn([C@H]2C[C@H](OCOCc3ccc([N+](=O)[O-])cc3)[C@@H](COP(=O)(O)OP(=O)(O)OP(=O)(O)O)O2)c(=O)[nH]c1=O [PNBA-dTTP, 4-nitrobenzyloxy-methyl (PNBA)-dTTP] | – | – | – | gave 21-mer products | terminate further base incorporation | successfully incorporated | gave 21-mer products
Cc1cn([C@H]2C[C@H](OCOCC[Si](C)(C)C)[C@@H](COP(=O)(O)OP(=O)(O)OP(=O)(O)O)O2)c(=O)[nH]c1=O [SEM-dTTP, 2-(trimethylsilyl)ethoxymethyl (SEM)-dTTP] | – | – | – | gave 21-mer products | terminate further base incorporation | successfully incorporated | gave 21-mer products
C=CCOCO[C@H]1C[C@H](n2cc(C)c(=O)[nH]c2=O)O[C@@H]1COP(=O)(O)OP(=O)(O)OP(=O)(O)O [AL-dTTP, (allyloxy)methyl (ALM)-dTTP] | – | – | – | gave 21-mer products | terminate further base incorporation | successfully incorporated | –
Cc1cn([C@H]2C[C@H](OC(=O)OCCSSC(C)(C)C)[C@@H](COP(=O)(O)OP(=O)(O)OP(=O)(O)O)O2)c(=O)[nH]c1=O [DT-dTTP, disulfide carbonate (DT)-dTTP] | – | able to incorporate with natural dTTP | can terminate the reaction as well as Az-dTTP | gave 21-mer products | terminate further base incorporation | successfully incorporated | particularly good yield of 21-mer
